Usually IC50 stands for the point on the concentration scale where inhibition reaches its midpoint.

The results in this text go back to patent US8492589B2, “Alkynyl phenyl derivative compounds for treating ophthalmic diseases and disorders” (Acucela Inc., priority 2007, dated 2013).

This experiment addresses T1, visual cycle isomerase (Bovine RPE microsome membranes) (Bos taurus, UniProt Q28175).
T1 construct: Bovine Retinal Pigment Epithelium (RPE) microsome membranes were the source of a visual cycle isomerase; from tissue; host or cells: bovine retinal pigment epithelium microsome membranes
T1 sequence (Q28175 2-533 limits assumed): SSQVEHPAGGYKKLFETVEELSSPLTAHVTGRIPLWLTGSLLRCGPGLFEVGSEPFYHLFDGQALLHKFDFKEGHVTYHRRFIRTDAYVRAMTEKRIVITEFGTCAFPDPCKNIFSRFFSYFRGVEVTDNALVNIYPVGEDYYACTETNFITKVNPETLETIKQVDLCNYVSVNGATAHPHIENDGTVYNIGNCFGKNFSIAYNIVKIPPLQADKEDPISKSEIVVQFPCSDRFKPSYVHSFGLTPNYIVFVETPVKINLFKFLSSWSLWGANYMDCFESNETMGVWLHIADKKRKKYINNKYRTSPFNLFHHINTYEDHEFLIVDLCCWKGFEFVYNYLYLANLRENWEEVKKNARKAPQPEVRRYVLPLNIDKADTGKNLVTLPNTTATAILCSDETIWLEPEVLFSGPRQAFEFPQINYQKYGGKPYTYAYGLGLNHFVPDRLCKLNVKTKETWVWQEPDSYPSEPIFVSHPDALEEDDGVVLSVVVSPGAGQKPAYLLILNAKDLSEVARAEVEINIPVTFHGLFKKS
Briefly: In vitro isomerase inhibition assay, bovine RPE microsome membranes. The format is biochemical. The note with it: bovine RPE microsomes; 11-cis retinol formation. Here is the method:
The capability of alkynyl phenyl-linked amine derivative compounds to inhibit the activity of a visual cycle isomerase was determined.
Bovine Retinal Pigment Epithelium (RPE) microsome membranes were the source of a visual cycle isomerase.
Crude RPE microsome extracts were thawed in a 37° C. water bath, and then immediately placed on ice. 50 ml crude RPE microsomes were placed into a 50 ml Teflon-glass homogenizer (Fisher Scientific, catalog no. 0841416M) on ice, powered by a hand-held DeWalt drill, and homogenized ten times up and down on ice under maximum speed. This process was repeated until the crude RPE microsome solution was homogenized. The homogenate was then subjected to centrifugation (50.2 Ti rotor (Beckman, Fullerton, Calif.), 13,000 RPM; 15360 Rcf) for 15 minutes at 4° C. The supernatant was collected and subjected to centrifugation at 42,000 RPM (160,000 Rcf; 50.2 Ti rotor) for 1 hour at 4° C. The supernatant was removed, and the pellets were suspended in 12 ml (final volume) cold 10 mM MOPS buffer, pH 7.0. The resuspended RPE membranes in 5 ml aliquots were homogenized in a glass-to-glass homogenizer (Fisher Scientific, catalog no. K885500-0021) to high homogeneity. Protein concentration was quantified using the BCA protein assay according to the manufacturer's protocol (Pierce, Rockford, Ill.). The homogenized RPE preparations were stored at −80° C.
Recombinant human apo cellular retinaldehyde-binding protein (CRALBP) was cloned and expressed according to standard methods in the molecular biology art (see Crabb et al., Protein Science 7:746-57 (1998); Crabb et al., J. Biol. Chem. 263:18688-92 (1988)). Briefly, total RNA was prepared from confluent ARPE19 cells (American Type Culture Collection, Manassas, Va.), cDNA was synthesized using an oligo(dT)12-18 primer, and then DNA encoding CRALBP was amplified by two sequential polymerase chain reactions (see Crabb et al., J. Biol. Chem. 263:18688-92 (1988); Intres, et al., J. Biol. Chem. 269:25411-18 (1994); GenBank Accession No. L34219.1). The PCR product was sub-cloned into pTrcHis2-TOPO TA vector according to the manufacturer's protocol (Invitrogen Inc., Carlsbad, Calif.; catalog no. K4400-01), and then the sequence was confirmed according to standard nucleotide sequencing techniques. Recombinant 6×His-tagged human CRALBP was expressed in One Shot TOP 10 chemically competent E. coli cells (Invitrogen), and the recombinant polypeptide was isolated from E. coli cell lysates by nickel affinity chromatography using nickel (Ni) Sepharose XK16-20 columns for HPLC (Amersham Bioscience, Pittsburgh, Pa.; catalog no. 17-5268-02). The purified 6×His-tagged human CRALBP was dialyzed against 10 mM bis-tris-Propane (BTP) and analyzed by SDS-PAGE. The molecular weight of the recombinant human CRALBP was approximately 39 kDal.
Alkkynyl phenyl-linked amine derivative compounds and control compounds were reconstituted in ethanol to 0.1 M. Ten-fold serial dilutions (10^−2, 10^−3, 10^−4, 10^−5, 10^−6 M) in ethanol of each compound were prepared for analysis in the isomerase assay.
The isomerase assay was performed in 10 mM bis-tris-propane (BTP) buffer, pH 7.5, 0.5% BSA (diluted in BTP buffer), 1 mM sodium pyrophosphate, 20 μM all-trans retinol (in ethanol), and 6 μM apo-CRALBP. The test compounds (2 μl) (final […] dilution of serial dilution stocks) were added to the above reaction mixture to which RPE microsomes were added. The same volume of ethanol was added to the control reaction (absence of test compound). Bovine RPE microsomes (9 μl) (see above) were then added, and the mixtures transferred to 37° C. to initiate the reaction (total volume=150 μl). The reactions were stopped after 30 minutes by adding methanol (300 μl). Heptane was added (300 μl) and mixed into the reaction mixture by pipetting. Retinoid was extracted by agitating the reaction mixtures, followed by centrifugation in a microcentrifuge. […]
Molecule `CCCCC(O)(C#Cc1cccc(CCCN)c1)CCCC` [Example 3, 5-((3-(3-Aminopropyl)phenyl)ethynyl)nonan-5-ol] registered an IC50 of at most 1 µM.
The molecule `CCCC(C)(O)C#Cc1cccc(CCCN)c1` (stereo not shown) [Example 5, 1-(3-(3-Aminopropyl)phenyl)-3-methylhex-1-yn-3-ol] displayed an IC50 of at most 1 µM.
`CC(C)CC(C)(O)C#Cc1cccc(CCCN)c1` (stereo not shown) [Example 6, 1-(3-(3-Aminopropyl)phenyl)-3,5-dimethylhex-1-yn-3-ol]: the half-maximal inhibitory concentration (IC50) was at most 1 µM.
The molecule `COCC#Cc1cccc(CCCN)c1` [Example 9, 3-(3-(3-Methoxyprop-1-ynyl)phenyl)propan-1-amine] displayed an IC50 of at most 10 µM.
Consider `NCCCc1cccc(C#CCO)c1` [Example 10, 3-(3-(3-Aminopropyl)phenyl)prop-2-yn-1-ol], for which the 50% inhibitory concentration (IC50) was at most 100 µM.
Take `CC(C)(C)C(O)(C#Cc1cccc(CCCN)c1)C(C)(C)C` [Example 12, 1-(3-(3-Aminopropyl)phenyl)-3-tert-butyl-4,4-dimethylpent-1-yn-3-ol]: the IC50 is at most 10 µM.
With `CC1(C)CCCC(C)(C)C1(O)C#Cc1cccc(CCCN)c1` [Example 13, 1-((3-(3-Aminopropyl)phenyl)ethynyl)-2,2,6,6-tetramethylcyclohexanol], the concentration for half-maximal inhibition (IC50) was at most 10 µM.
The figure for `CCCCC[C@H](O)C#Cc1cccc(CCCN)c1` [Example 14, (S)-1-(3-(3-Aminopropyl)phenyl)oct-1-yn-3-ol] is at most 10 µM; for `CCCCC[C@@H](O)C#Cc1cccc(CCCN)c1` [Example 15, (R)-1-(3-(3-Aminopropyl)phenyl)oct-1-yn-3-ol] it is at most 1 µM.
Take `NCCCc1cccc(C#C[C@H](O)c2ccccc2)c1` [Example 16, (R)-3-(3-(3-Aminopropyl)phenyl)-1-phenylprop-2-ynol]: the 50% inhibitory concentration (IC50) was at most 1 µM.
`Cc1cccc(C)c1C#Cc1cccc(CCCN)c1` [Example 17, 3-(3-((2,6-dimethylphenyl)ethynyl)phenyl)propan-1-amine] showed a half-inhibitory concentration (IC50) of at most 10 µM.
For `CCCC(O)(C#Cc1cccc(CC(C)(C)CN)c1)CCC` [Example 20, 4-((3-(3-Amino-2,2-dimethylpropyl)phenyl)ethynyl)heptan-4-ol], the half-inhibitory concentration (IC50) was at most 100 µM.
Under `CC(C)C(C)(O)C#Cc1cccc(CCCN)c1` (stereo not shown) [Example 21, 1-(3-(3-Aminopropyl)phenyl)-3,4-dimethylpent-1-yn-3-ol] stands at most 1 µM.
On to `CC(O)(C#Cc1cccc(CCCN)c1)c1ccccc1` (stereo not shown) [Example 22, 4-(3-(3-Aminopropyl)Phenyl)-2-Phenylbut-3-Yn-2-ol], for which the concentration for half-maximal inhibition (IC50) was at most 1 µM.
In turn, `CC(C)C(O)C#Cc1cccc(CCCN)c1` (stereo not shown) [Example 23, 1-(3-(3-Aminopropyl)phenyl)-4-methylpent-1-yn-3-ol] displayed a concentration for half-maximal inhibition (IC50) of at most 1 µM.
Under `CCCCC(O)(C#Cc1cccc(OCCN)c1)CCCC` [Example 29, 5-((3-(2-Aminoethoxy)phenyl)ethynyl)nonan-5-ol] stands at most 1 µM.
With `CC(C)(O)C#Cc1cccc(OCCN)c1` [Example 30, 4-(3-(2-Aminoethoxy)phenyl)-2-methylbut-3-yn-2-ol], the concentration for half-maximal inhibition (IC50) is at most 1 µM.
As to `CC(C)CC(O)(C#Cc1cccc(CCCN)c1)CC(C)C` [Example 33, 4-((3-(3-Aminopropyl)phenyl)ethynyl)-2,6-dimethylheptan-4-ol], the IC50 is at most 10 µM.
Under `NCCCc1cccc(C#CCCO)c1` [Example 34, 4-(3-(3-Aminopropyl)Phenyl)But-3-Yn-1-ol] stands at most 100 µM.
Turning to `CC(O)CC#Cc1cccc(CCCN)c1` (stereo not shown) [Example 35, 5-(3-(3-Aminopropyl)phenyl)pent-4-yn-2-ol], the 50% inhibitory concentration (IC50) was at most 10 µM.
Molecule `NCCCc1cccc(C#CCC2CCCC2)c1` [Example 39, 3-(3-(3-Cyclopentylprop-1-ynyl)phenyl)propan-1-amine] showed a concentration for half-maximal inhibition (IC50) of at most 1 µM.
The molecule `CC(C)(C)C#Cc1cccc(CCCN)c1` [Example 40, 3-(3-(3,3-Dimethylbut-1-Ynyl)Phenyl)Propan-1-Amine] came in with a half-inhibitory concentration (IC50) of at most 10 µM.
Under `NCCCc1cccc(C#CC2CCCCC2)c1` [Example 41, 3-(3-(Cyclohexylethynyl)phenyl)propan-1-amine] stands at most 1 µM; under `NCCCc1cccc(C#CCc2ccccc2)c1` [Example 42, 3-(3-(3-Phenylprop-1-ynyl)phenyl)propan-1-amine], at most 1 µM; under `CCCC#Cc1cccc(CCCN)c1` [Example 43, 3-(3-(Pent-1-ynyl)phenyl)propan-1-amine], at most 1 µM.
For the molecule `CCCCC#Cc1cccc(CCCN)c1` [Example 44, 3-(3-(Hex-1-ynyl)phenyl)propan-1-amine], the IC50 is at most 1 µM.
Molecule `NCCCc1cccc(C#Cc2ccc3ccccc3c2)c1` [Example 45, 3-(3-(Naphthalen-2-ylethynyl)phenyl)propan-1-amine] had a concentration for half-maximal inhibition (IC50) of at most 1000 µM.
The figure for `NCCCc1cccc(C#Cc2cccc(-c3ccccc3)c2)c1` [Example 46, 3-(3-(Biphenyl-3-ylethynyl)phenyl)propan-1-amine] is at most 100 µM; for `NCCC(O)c1cccc(C#CCC2CCCC2)c1` (stereo not shown) [Example 48, 3-Amino-1-(3-(3-cyclopentylprop-1-ynyl)phenyl)propan-1-ol] it is at most 1 µM; for `NCCC(O)c1cccc(C#CCc2ccccc2)c1` (stereo not shown) [Example 49, 3-Amino-1-(3-(3-phenylprop-1-ynyl)phenyl)propan-1-ol] it is at most 1 µM.
`CCCCCC#Cc1cccc(C(O)CCN)c1` (stereo not shown) [Example 53, 3-Amino-1-(3-(hept-1-ynyl)phenyl)propan-1-ol] returned a concentration for half-maximal inhibition (IC50) of at most 1 µM.
For `NCCOc1cccc(C#CC2(O)CCOCC2)c1` [Example 56, 4-((3-(2-Aminoethoxy)phenyl)ethynyl)tetrahydro-2H-pyran-4-ol], the IC50 was at most 10 µM.
`NCCCc1cccc(C#CC2(O)CCCCCC2)c1` [Example 58, 1-((3-(3-Aminopropyl)phenyl)ethynyl)cycloheptanol] yielded an IC50 of at most 1 µM.
Consider `NCCCc1cccc(C#Cc2cccnc2)c1` [Example 64, 3-(3-(Pyridin-3-ylethynyl)phenyl)propan-1-amine], for which the IC50 was at most 10 µM.
Turning to `NCCCc1cccc(C#Cc2cccs2)c1` [Example 65, 3-(3-(Thiophen-2-ylethynyl)phenyl)propan-1-amine], the IC50 was at most 10 µM.
`NCCCc1cccc(C#Cc2ccsc2)c1` [Example 66, 3-(3-(Thiophen-3-ylethynyl)phenyl)propan-1-amine]: the 50% inhibitory concentration (IC50) was at most 10 µM.
Under `COCCCCC#Cc1cccc(CCCN)c1` [Example 67, 3-(3-(6-Methoxyhex-1-ynyl)phenyl)propan-1-amine] stands at most 1 µM.
